Assay results: patent US8835458B2 (Hanmi Science Co., Ltd, priority 2010, dated 2014)
Counter-ions that a name gives are not always drawn. Like-named read-outs stand apart in the source and are kept apart here.

Experiments:
[1] = system: MDA-MB-231 breast cancer cell lines; assay: Evaluation of inhibition on cell growth (MTS); assay type: cell-based; settings: Homo sapiens, MDA-MB-231, 120 hours
Protocol: (§1) MDA-MB-231 breast cancer cell lines (ATCC #HTB-26) and BxPC-3 pancreas cancer cell lines (ATCC #CRL 1687), which have been reported to express XIAP, were obtained from ATCC (American type culture collection; Rockville, Md.). MDA-MB-231 cell lines were incubated in L-15 medium supplemented with 10% FBS and 1% penicillin/streptomycin (Gibco BRL) at a T-75 cm^2 growth flask. In addition, BxPC-3 cell lines were incubated in RPMI medium supplemented with 10% FBS and 1% penicillin/streptomycin. For experiments of toxicity to normal cells, fibroblasts Hs27 (ATCC #CRL 1634) and Balb/c3t3 (ATCC #CCL 163) were used. The various cell lines were transferred into 96-well plates at a density of 3,000˜5,000 cells/100 μL, and cultured for 24 hours under conditions of 37° C., 5% CO2, 95% air, and 100% relative humidity (MDA-MB-231 cells were cultured under atmospheric conditions). The cells were treated with 10 μM˜0.1 nM of test compounds, and MDA-MB-231, BxPC-3, and normal cell lines were cultured for 120, 96, and 72 hours, respectively.
(§2) Cell viabilities of MDA-MB-231 cell lines were measured at an absorbance of 490 nm using CellTiter 96™ AQueous One Solution Cell proliferation Assay (MTS, Promega), and cell viabilities of BxPC-3 and normal cell lines were measured by fixing cells with 10% TCA (trichloroacetic acid), staining with SRB (sulforhodamine B), and measuring at 540 nm. From the values, GI50 values in which test compounds reduce the growth of cancer cells by 50% were calculated. The growth rates of cancer cells were calculated from following Equation 1 or 2. [(Ti−Tz)/(C−Tz)]×100 (for Ti>=Tz) [Equation 1] [(Ti−Tz)/Tz]×100 (for Ti<Tz) [Equation 2] In Equations 1 and 2, Tz refers to a density of untreated cells, which is an absorbance in 0% cell growth groups. C refers to a density of cells cultured by adding only medium, and Ti refers to a density of cells treated with test compounds.
(§3) GI50 value is the concentration of a test compound when the value of Equation 1 is 50, which indicates the concentration of test compound required to inhibit the cancer cells by 50%. On each measurement, test compounds were compared with a control.
(§4) The activity value of each compound (GI50 value) was shown in Table 5, and an IAP antagonist was used as a control.
(§5) In the activity measurement on MDA-MB-231 breast cancer cell lines, the values were represented as “***” for 100 nM or less, “**” for over 100 nM to below 1,000 nM, and “*” for 1,000 nM or more. In the measurement on normal cell lines, Balb/C and Hs27, the values were represented as “+++” for 10,000 nM or more, “++” for over 5,000 nM to below 10,000 nM, and “+” for 5,000 nM or less.

[2] = Toxicity to normal cells (SRB); assay type: cell-based, mouse; settings: mouse, Balb/c3t3 fibroblasts (normal cell line), read-out: BalB/C (GI50)
Protocol: as §1, §2, §3, §4, §5

[3] = Toxicity to normal cells (SRB); assay type: cell-based, human; settings: human, Hs27 fibroblasts (normal cell line)
Protocol: as §1, §2, §3, §4, §5

Structure (SMILES)	GI50 [1] [µM]	GI50 at 72 h [2] [µM]	GI50 at 72 h [3] [µM]
CN[C@@H](C)C(=O)N[C@H](C(=O)N1CCC[C@H]1C(=O)Nc1cc2c(Nc3c(Cl)ccc4c3OCO4)ncnc2cc1OCCOC)C(C)(C)C [Example 3, ((S)—N-(4-(5-chlorobenzo[d][1,3]dioxol-4-ylamino)-7-(2-methoxyethoxy)quinazolin-6-yl)-1-((S)-3,3-dimethyl-2-((S)-2-(methylamino)propanamido)butanoyl)pyrrolidine-2-carboxamide hydrochloride]	0.1 to 1	> 10	> 10
CN[C@@H](C)C(=O)N[C@H](C(=O)N1CCC[C@H]1C(=O)Nc1ccc2ncnc(Nc3cccc(Cl)c3F)c2c1)C(C)(C)C [Example 4, (S)—N-(4-(3-chloro-2-fluorophenylamino)quinazolin-6-yl)-1-((S)-3,3-dimethyl-2-((S)-2-(methylamino)propanamido)butanoyl)pyrrolidine-2-carboxamide hydrochloride]	0.1 to 1	> 10	> 10
CN[C@@H](C)C(=O)N[C@H](C(=O)N1CCC[C@H]1C(=O)Nc1cc2c(Nc3ccc(F)c(Cl)c3)ncnc2cc1OCCOC)C(C)(C)C [Example 5, (S)—N-(4-(3-chloro-4-fluorophenylamino)-7-(2-methoxyethoxy)quinazolin-6-yl)-1-((S)-3,3-dimethyl-2-((S)-2-(methylamino)propanamido)butanoyl)pyrrolidine-2-carboxamide hydrochloride]	0.1 to 1	> 10	> 10
CNc1ncnc2cc(OC)c(NC(=O)[C@@H]3CCCN3C(=O)[C@@H](NC(=O)[C@H](C)NC)C(C)(C)C)cc12 [Example 23, (S)-1-((S)-3,3-dimethyl-2-((S)-2-(methylamino)propanamido)butanoyl)-N-(7-methoxy-4-(methylamino)quinazolin-6-yl)pyrrolidine-2-carboxamide]	≤ 0.1	> 10	> 10
CN[C@@H](C)C(=O)N[C@H](C(=O)N1CCC[C@H]1C(=O)Nc1cc2c(Nc3ccc(N4CCN(C)CC4)c(F)c3)ncnc2cc1OC)C(C)(C)C [Example 112, (S)-1-((S)-3,3-dimethyl-2-((S)-2-(methylamino)propanamido)butanoyl)-N-(4-((3-fluoro-4-(4-methylpiperazin-1-yl)phenyl)amino)-7-methoxyquinazolin-6-yl)pyrrolidine-2-carboxamide]	≤ 0.1		> 10
CN[C@@H](C)C(=O)N[C@H](C(=O)N1CCC[C@H]1C(=O)Nc1cc2c(Nc3ccc(N4CCCC4)c(Cl)c3)ncnc2cc1OC)C(C)(C)C [Example 113, (S)—N-(4-((3-chloro-4-(pyrrolidin-1-yl)phenyl)amino)-7-methoxyquinazolin-6-yl)-1-((S)-3,3-dimethyl-2-((S)-2-(methylamino)propanamido)butanoyl)pyrrolidine-2-carboxamide]	≤ 0.1		> 10

Further lines, with some results ahead:

GI50 [1] [µM]	Structure (SMILES)	GI50 at 72 h [2] [µM]	GI50 at 72 h [3] [µM]
0.1 to 1	CN[C@@H](C)C(=O)N[C@H](C(=O)N1CCC[C@H]1C(=O)Nc1cc2c(Nc3ccc(F)c(Cl)c3F)ncnc2cc1OCCOC)C(C)(C)C [Example 6, (S)—N-(4-(3-chloro-2,4-difluorophenylamino)-7-(2-methoxyethoxy)quinazolin-6-yl)-1-((S)-3,3-dimethyl-2-((S)-2-(methylamino)propanamido)butanoyl)pyrrolidine-2-carboxamide hydrochloride]	> 10	> 10
≤ 0.1	CN[C@@H](C)C(=O)N[C@H](C(=O)N1CCC[C@H]1C(=O)Nc1cc2c(Nc3cccc(Cl)c3F)ncnc2cc1OC)C(C)(C)C.Cl [Example 7, hydrochloride]	> 10	> 10
≥ 1	COc1cc2ncnc(Nc3ccc(F)c(Cl)c3F)c2cc1NC(=O)[C@@H]1CCCN1C(=O)[C@@H](NC(=O)[C@H](C)N)C(C)(C)C [Example 12, (S)-1-((S)-2-((S)-2-aminopropanamido)-3,3-dimethylbutanoyl)-N-(4-(3-chloro-2,4-difluorophenylamino)-7-methoxyquinazolin-6-yl)pyrrolidine-2-carboxamide hydrochloride]	> 10	> 10
≥ 1	C=CC(=O)N[C@@H](C)C(=O)N[C@H](C(=O)N1CCC[C@H]1C(=O)Nc1cc2c(Nc3ccc(F)c(Cl)c3F)ncnc2cc1OC)C(C)(C)C [Example 13, (S)-1-((S)-2-((S)-2-acrylamidopropanamido)-3,3-dimethylbutanoyl)-N-(4-(3-chloro-2,4-difluorophenylamino)-7-methoxyquinazolin-6-yl)pyrrolidine-2-carboxamide hydrochloride]	> 10	> 10
≤ 0.1	CN[C@@H](C)C(=O)N[C@H](C(=O)N1CCC[C@H]1C(=O)Nc1cc2c(Nc3ccc(F)c(Cl)c3F)ncnc2cc1O[C@H]1CCOC1)C(C)(C)C [Example 14, (S)—N-(4-(3-chloro-2,4-difluorophenylamino)-7-((S)-tetrahydrofuran-3-yloxy)quinazolin-6-yl)-1-((S)-3,3-dimethyl-2-((S)-2-(methylamino)propanamido)butanoyl)pyrrolidine-2-carboxamide hydrochloride]	> 10	> 10
0.1 to 1	CN[C@@H](C)C(=O)N[C@H](C(=O)N1CCC[C@H]1C(=O)Nc1cc2c(Nc3ccc(F)c(Cl)c3F)ncnc2cc1O[C@@H]1CCOC1)C(C)(C)C [Example 16, (S)—N-(4-(3-chloro-2,4-difluorophenylamino)-7-((R)-tetrahydrofuran-3-yloxy)quinazolin-6-yl)-1-((S)-3,3-dimethyl-2-((S)-2-(methylamino)propanamido)butanoyl)pyrrolidine-2-carboxamide hydrochloride]	> 10	> 10
0.1 to 1	CN[C@@H](C)C(=O)N[C@H](C(=O)N1CC[C@H]1C(=O)Nc1cc2c(Nc3ccc(F)c(Cl)c3F)ncnc2cc1OC)C(C)(C)C [Example 20, (S)—N-(4-(3-chloro-2,4-difluorophenylamino)-7-methoxyquinazolin-6-yl)-1-((S)-3,3-dimethyl-2-((S)-2-(methylamino)propanamido)butanoyl)azetidine-2-carboxamide hydrochloride]	> 10	> 10
≤ 0.1	CN[C@@H](C)C(=O)N[C@H](C(=O)N1CCC[C@H]1C(=O)Nc1cc2c(Nc3ccccc3Cl)ncnc2cc1OC)C(C)(C)C [Example 21, (S)—N-(4-(2-chlorophenylamino)-7-methoxyquinazolin-6-yl)-1-((S)-3,3-dimethyl-2-((S)-2-(methylamino)propanamido)butanoyl)pyrrolidine-2-carboxamide hydrochloride]	> 10	> 10
≤ 0.1	CN[C@@H](C)C(=O)N[C@H](C(=O)N1CCC[C@H]1C(=O)Nc1cc2c(Nc3ccccc3Br)ncnc2cc1OC)C(C)(C)C [Example 22, (S)—N-(4-(2-bromophenylamino)-7-methoxyquinazolin-6-yl)-1-((S)-3,3-dimethyl-2-((S)-2-(methylamino)propanamido)butanoyl)pyrrolidine-2-carboxamide hydrochloride]	> 10	> 10
